Assay results reported in patent US20240368154A1 (GENOSCO Inc., priority 2023, published 2024).

Experiments:
[1] = biological target: T1, Recombinant ROCK2 (amino acids 5-554) (Homo sapiens, UniProt O75116); test: ROCK inhibition assay, LANCE Ultra TR-FRET kinase assay; format: biochemical; details: at Km of ATP (table title); method: 1 mM ATP, 50 nM ULight-CREBtide substrate, 1 hour, room temperature
T1 construct: ROCK2 (amino acids 5-554)
Experimental: (§1) Kinase IC50 was determined through an in vitro assay based on LANCE Ultra TR-FRET (Time-Resolved Fluorescence Resonance Energy Transfer) homogeneous technologies method (Perkin Elmer). Recombinant ROCK1 (amino acids 1-477) and ROCK2 (amino acids 5-554) proteins were purchased from Carna Biosciences and SignalChem. Compound activities were measured by Envision and IC50s were calculated. The assays were performed in white LUMITRAC™ 200 96 well half-area microplates from Greiner Bio-One. The kinase reaction buffer consisted of 50 mM HEPES pH 7.5, 1 mM EGTA, 10 mM MgCl2, 2 mM DTT and 0.01% Tween-20. Kinases were incubated with 50 nM (ULight-CREBtide) substrate in the presence of 1 mM (ROCK1) or 1 mM (ROCK2) of ATP. The kinase reaction was carried out for 1 hour before addition of a stopping buffer to a final of 10 mM EDTA and 0.6 nM of LANCE Ultra Europium anti-phospho-CREB (Ser133) antibody (PerkinElmer TRF0200) in LANCE detection buffer. All assay incubations were performed at room temperature, and the microplates were sealed with polyester film during that time. The reaction was incubated for 1 hour, and the signal was read in Envision in TR-FRET mode (excitation at 320 nm and emission at 615/665 nm).
(§2) As used herein, a way to describe potency of inhibitory activity (nM) is a value of inhibitory activity at 50% (IC50).

[2] = biological target: T2, Recombinant ROCK1 (amino acids 1-477) (Homo sapiens, UniProt Q13464); test: as above; format: biochemical; details: at Km of ATP (table title); method: 1 mM ATP, 50 nM ULight-CREBtide substrate, 1 hour, room temperature
T2 construct: Recombinant ROCK1 (amino acids 1-477)
T2 sequence (Q13464 1-477): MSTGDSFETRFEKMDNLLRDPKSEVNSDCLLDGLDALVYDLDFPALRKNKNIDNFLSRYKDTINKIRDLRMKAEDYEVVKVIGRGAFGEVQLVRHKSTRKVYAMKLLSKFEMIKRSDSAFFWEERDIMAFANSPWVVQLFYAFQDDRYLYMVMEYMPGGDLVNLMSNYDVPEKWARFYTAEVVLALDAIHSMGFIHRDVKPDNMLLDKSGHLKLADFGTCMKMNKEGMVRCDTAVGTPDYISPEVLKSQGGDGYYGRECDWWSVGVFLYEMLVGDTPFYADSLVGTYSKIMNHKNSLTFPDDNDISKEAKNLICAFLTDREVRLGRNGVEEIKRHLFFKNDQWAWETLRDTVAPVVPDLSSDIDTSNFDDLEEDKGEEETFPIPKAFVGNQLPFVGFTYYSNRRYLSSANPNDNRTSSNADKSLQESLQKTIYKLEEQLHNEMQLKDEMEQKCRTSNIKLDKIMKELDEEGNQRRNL
Experimental: as §1, §2

T1 sequence (O75116 5-554): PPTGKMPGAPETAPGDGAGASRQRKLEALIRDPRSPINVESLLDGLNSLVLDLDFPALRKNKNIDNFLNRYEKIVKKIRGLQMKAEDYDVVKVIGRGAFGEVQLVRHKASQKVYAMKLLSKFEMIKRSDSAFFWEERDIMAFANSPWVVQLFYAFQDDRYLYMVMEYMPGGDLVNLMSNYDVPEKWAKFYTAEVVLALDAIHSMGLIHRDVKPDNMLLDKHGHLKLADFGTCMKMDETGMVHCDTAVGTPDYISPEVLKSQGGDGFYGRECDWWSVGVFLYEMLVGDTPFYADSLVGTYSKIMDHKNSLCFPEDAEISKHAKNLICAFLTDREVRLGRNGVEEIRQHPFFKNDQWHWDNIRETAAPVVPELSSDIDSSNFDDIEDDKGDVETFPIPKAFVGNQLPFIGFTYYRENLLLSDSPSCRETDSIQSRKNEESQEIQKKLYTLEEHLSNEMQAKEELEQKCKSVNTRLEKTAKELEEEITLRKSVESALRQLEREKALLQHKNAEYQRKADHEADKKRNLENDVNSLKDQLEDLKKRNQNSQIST

IC50 [1] [nM]	IC50 [2] [nM]	Compound
11 to 50	11 to 50	COc1n[nH]cc1-c1ccc2c(C(=O)C3COc4ccc(Cl)cc4C3)cn(CCO)c2c1 (racemic) [Compound 2-17]
11 to 50	11 to 50	COc1n[nH]cc1-c1ccc2c(C(=O)C3COc4ccc(F)cc4C3)cn(CCO)c2c1 (racemic) [Compound 2-20]
< 10	11 to 50	COc1n[nH]cc1-c1ccc2c(C(=O)[C@@H]3COc4ccc(Cl)cc4C3)cn(CCO)c2c1 (single isomer, unassigned) [Compound 2-18]
51 to 500	> 501	COc1n[nH]cc1-c1ccc2c(C(=O)[C@H]3COc4ccc(Cl)cc4C3)cn(CCO)c2c1 (single isomer, unassigned) [Compound 2-19]
< 10	11 to 50	COc1n[nH]cc1-c1ccc2c(C(=O)[C@@H]3COc4ccc(F)cc4C3)cn(CCO)c2c1 (single isomer, unassigned) [Compound 2-21]
51 to 500	> 501	COc1n[nH]cc1-c1ccc2c(C(=O)[C@H]3COc4ccc(F)cc4C3)cn(CCO)c2c1 (single isomer, unassigned) [Compound 2-22]
> 501	> 501	COc1n[nH]cc1-c1cc2c(cn1)c(C(=O)C1COc3ccc(Cl)cc3C1)cn2CCO (centres unmarked) [Compound 1-1]
< 10	11 to 50	O=C(c1cn(CCO)c2nc(-c3c[nH]nc3Cl)ccc12)C1COc2ccc(F)cc2C1 (centres unmarked) [Compound 1-3]
< 10	11 to 50	O=C(c1cn(CCO)c2nc(-c3c[nH]nc3Cl)ccc12)C1COc2ccc(Cl)cc2C1 (centres unmarked) [Compound 1-4]
11 to 50	51 to 500	O=C(c1cn(CCO)c2cc(-c3c[nH]nc3Cl)cnc12)C1COc2ccc(Cl)cc2C1 (centres unmarked) [Compound 1-5]
< 10	11 to 50	CC(O)Cn1cc(C(=O)C2COc3ccc(Cl)cc3C2)c2cnc(-c3c[nH]nc3Cl)cc21 (centres unmarked) [Compound 1-6]
< 10	11 to 50	C[C@H](O)Cn1cc(C(=O)C2COc3ccc(Cl)cc3C2)c2cnc(-c3cn[nH]c3Cl)cc21 (some centres unmarked) [Compound 1-7]
< 10	11 to 50	C[C@@H](O)Cn1cc(C(=O)C2COc3ccc(Cl)cc3C2)c2cnc(-c3c[nH]nc3Cl)cc21 (some centres unmarked) [Compound 1-8]
< 10	11 to 50	C[C@H](O)Cn1cc(C(=O)[C@@H]2COc3ccc(Cl)cc3C2)c2cnc(-c3cn[nH]c3Cl)cc21 [Compound 1-9]
< 10	11 to 50	C[C@@H](O)Cn1cc(C(=O)[C@@H]2COc3ccc(Cl)cc3C2)c2cnc(-c3cn[nH]c3Cl)cc21 [Compound 1-10]
11 to 50	11 to 50	C[C@H](O)Cn1cc(C(=O)[C@@H]2COc3ccc(Cl)cc3C2)c2cnc(-c3cn[nH]c3Cl)cc21 [Compound 1-11]
< 10	11 to 50	C[C@H](O)Cn1cc(C(=O)[C@@H]2COc3ccc(Cl)cc3C2)c2cnc(-c3cn[nH]c3Cl)cc21 [Compound 1-12]
< 10	11 to 50	O=C(c1cn(CCO)c2cc(-c3c[nH]nc3Cl)ncc12)C1COc2ccc(F)cc2C1 (centres unmarked) [Compound 1-13]
< 10	< 10	CC(O)Cn1cc(C(=O)C2COc3ccc(F)cc3C2)c2cnc(-c3c[nH]nc3Cl)cc21 (centres unmarked) [Compound 1-14]
< 10	< 10	Cc1n[nH]cc1-c1ccc2c(C(=O)C3COc4ccc(F)cc4C3)cn(CCO)c2n1 (centres unmarked) [Compound 1-15]
< 10	11 to 50	CC(C)(O)Cn1cc(C(=O)C2COc3ccc(Cl)cc3C2)c2cnc(-c3c[nH]nc3Cl)cc21 (centres unmarked) [Compound 1-16]
< 10	< 10	CC(C)(O)Cn1cc(C(=O)[C@@H]2COc3ccc(Cl)cc3C2)c2cnc(-c3c[nH]nc3Cl)cc21 [Compound 1-17]
51 to 500	> 501	CC(C)(O)Cn1cc(C(=O)[C@H]2COc3ccc(Cl)cc3C2)c2cnc(-c3c[nH]nc3Cl)cc21 [Compound 1-18]
< 10	< 10	CC(C)(O)Cn1cc(C(=O)[C@@H]2COc3ccc(Cl)cc3C2)c2cnc(-c3c[nH]nc3Cl)cc21 [Compound 1-19]
< 10	< 10	C[C@H](O)Cn1cc(C(=O)C2COc3ccc(F)cc3C2)c2cnc(-c3c[nH]nc3Cl)cc21 (some centres unmarked) [Compound 1-20]
< 10	< 10	C[C@@H](O)Cn1cc(C(=O)C2COc3ccc(F)cc3C2)c2cnc(-c3c[nH]nc3Cl)cc21 (some centres unmarked) [Compound 1-21]

IC50 [1] [nM]	IC50 [2] [nM]	Compound
< 10	< 10	COc1ccc2c(c1)CC(C(=O)c1cn(CCO)c3nc(-c4c[nH]nc4Cl)ccc13)CO2 (centres unmarked) [Compound 1-22]
< 10	< 10	COc1ccc2c(c1)CC(C(=O)c1cn(CCO)c3cc(-c4c[nH]nc4Cl)ncc13)CO2 (centres unmarked) [Compound 1-23]
< 10	< 10	COc1ccc2c(c1)CC(C(=O)c1cn(CCO)c3cc(-c4cn[nH]c4F)ncc13)CO2 (centres unmarked) [Compound 1-24]
< 10	11 to 50	COc1ccc2c(c1)CC(C(=O)c1cn(C[C@H](C)O)c3cc(-c4cn[nH]c4F)ncc13)CO2 (some centres unmarked) [Compound 1-25]
< 10	< 10	COc1ccc2c(c1)C[C@H](C(=O)c1cn(C[C@H](C)O)c3cc(-c4cn[nH]c4F)ncc13)CO2 [Compound 1-26]
< 10	< 10	COc1ccc2c(c1)CC(C(=O)c1cn(C[C@H](C)O)c3cc(-c4cn[nH]c4Cl)ncc13)CO2 (some centres unmarked) [Compound 1-27]
< 10	< 10	COc1ccc2c(c1)CC(C(=O)c1cn(CC(C)(C)O)c3cc(-c4cn[nH]c4F)ncc13)CO2 (centres unmarked) [Compound 1-28]
< 10	< 10	COc1ccc2c(c1)CC(C(=O)c1cn(CC(C)(C)O)c3cc(-c4cn[nH]c4Cl)ncc13)CO2 (centres unmarked) [Compound 1-29]
< 10	11 to 50	C[C@H](O)Cn1cc(C(=O)[C@@H]2COc3ccc(Cl)cc3C2)c2cnc(-c3cn[nH]c3F)cc21 [Compound 1-30]
< 10	< 10	CC(C)(O)Cn1cc(C(=O)[C@@H]2COc3ccc(Cl)cc3C2)c2cnc(-c3cn[nH]c3F)cc21 [Compound 1-31]
< 10	11 to 50	CC(C)(O)Cn1cc(C(=O)[C@@H]2COc3ccc(Cl)cc3C2)c2cnc(-c3c[nH]nc3Cl)cc21 [Compound 1-32]
< 10	11 to 50	COc1[nH]ncc1-c1cc2c(cn1)c(C(=O)[C@@H]1COc3ccc(Cl)cc3C1)cn2C[C@H](C)O [Compound 1-33]
11 to 50	51 to 500	COc1[nH]ncc1-c1cc2c(cn1)c(C(=O)[C@H]1COc3ccc(Cl)cc3C1)cn2C[C@H](C)O [Compound 1-34]
11 to 50	51 to 500	CC[C@H](O)Cn1cc(C(=O)C2COc3ccc(Cl)cc3C2)c2cnc(-c3cn[nH]c3Cl)cc21 (some centres unmarked) [Compound 1-35]
11 to 50	51 to 500	CC[C@H](O)Cn1cc(C(=O)C2COc3ccc(Cl)cc3C2)c2cnc(-c3cn[nH]c3F)cc21 (some centres unmarked) [Compound 1-36]
11 to 50	51 to 500	O=C(c1cn(CC2CC(O)C2)c2cc(-c3cn[nH]c3F)ncc12)C1COc2ccc(Cl)cc2C1 (centres unmarked) [Compound 1-37]
11 to 50	11 to 50	CC(O)Cn1cc(C(=O)C2COc3ccc(Cl)cc3C2)c2ccc(-c3c[nH]nc3Cl)cc21 (centres unmarked) [Compound 1-39]
< 10	11 to 50	CC(O)Cn1cc(C(=O)[C@@H]2COc3ccc(Cl)cc3C2)c2ccc(-c3c[nH]nc3Cl)cc21 (some centres unmarked) [Compound 1-40]
< 10	11 to 50	CC(O)Cn1cc(C(=O)[C@@H]2COc3ccc(Cl)cc3C2)c2ccc(-c3c[nH]nc3F)cc21 (some centres unmarked) [Compound 1-41]
< 10	11 to 50	COc1n[nH]cc1-c1ccc2c(C(=O)[C@@H]3COc4ccc(Cl)cc4C3)cn(CC(C)O)c2c1 (some centres unmarked) [Compound 1-42]
11 to 50	51 to 500	COc1n[nH]cc1-c1ccc2c(C(=O)C3COc4ccc(Cl)cc4C3)cn(C[C@H](C)O)c2c1 (some centres unmarked) [Compound 1-43]
11 to 50	11 to 50	COc1n[nH]cc1-c1ccc2c(C(=O)C3COc4ccc(Cl)cc4C3)cn(C[C@@H](C)O)c2c1 (some centres unmarked) [Compound 1-44]
< 10	11 to 50	C[C@H](O)Cn1cc(C(=O)C2COc3ccc(Cl)cc3C2)c2cnc(-c3cn[nH]c3Cl)nc21 (some centres unmarked) [Compound 1-45]
< 10	< 10	C[C@H](O)Cn1cc(C(=O)[C@@H]2COc3ccc(Cl)cc3C2)c2cnc(-c3cn[nH]c3Cl)nc21 [Compound 1-46]
< 10	11 to 50	C[C@@H](O)Cn1cc(C(=O)C2COc3ccc(Cl)cc3C2)c2cnc(-c3cn[nH]c3F)nc21 (some centres unmarked) [Compound 1-47]

Compound	IC50 [1] [nM]	IC50 [2] [nM]
O=C(c1cn(CC2CC(O)C2)c2cc(-c3cn[nH]c3Cl)ncc12)C1COc2ccc(Cl)cc2C1 (centres unmarked) [Compound 1-38]	< 10	11 to 50
